Measured values from patent publication US11226340B2, “Therapeutically triggering an innate immune response in a target tissue” (priority 2016, dated 2022).

Columns and labels:
[1] = system: B16 melanoma; assay: STING agonist combined with SSI in B16 melanoma lung model; format: in vivo, mouse; conditions: day +14
Protocol: The anti-tumour efficacy of QBKPN SSI in combination with the STING agonist 2′2′-cGMAP (inVivoGen) was evidenced in C57Bl/6 mice, as follows. On ˜day −31, mice were infected with K. pneumoniae (2.5×10^5 cells/mouse) by oropharyngeal instillation after being anaesthetized with isofluorane, then rested. Within 5-7 days, all mice were fully recovered from K. pneumonia challenge. Starting on day −10, some mice were S.C. injected with QBKPN SSI; mice were injected every other day from Day −10 to day +12. Injections were performed in rotating sites at a dose of 0.03 ml of a 5.0 OD suspension. On days −10, −6, and −4, some mice were also treated with STING agonist (SC injection of 10 μg/mouse in 20 μl of saline), either co-mixed with SSI or s.c. in a distal site (nape). On Day 0, mice were challenged with B16 melanoma by tail-vein (I.V.) injection of singlecell suspensions of tumour cells (2.0×10^5 cells/mouse). On day +14, plasma was collected for ELISA, then mice were sacrificed and visual metastases counted and recorded. Serum was collected into heparin-containing tubes, then centrifuged to remove cells. ELISA (RND Systems DuoSet DY485, limit of detection […]) was performed per the manufacturer's protocol. […] Statistical differences were evaluated by unpaired T test (GraphPad PRISM).

[2] = system: B16 melanoma; assay: Cancer antigen (gp100) potentiation in B16 melanoma lung model; format: in vivo, mouse; conditions: K. pneumoniae-pre-exposed mice; day +14

| Compound | tumour burden (tumour nodules in the lungs) ([1]; K. pneumoniae-pre-exposed mice) | circulating (plasma) levels of IFN-γ [1] | tumour burden (metastatic-like B16 melanoma in the lungs) [2] |
| --- | --- | --- | --- |
| Nc1nc2c(ncn2[C@@H]2O[C@@H]3COP(=O)(O)O[C@@H]4[C@H](O)C(COP(=O)(O)O[C@@H]2C3O)O[C@H]4n2cnc3c(N)ncnc32)c(=O)[nH]1 (stereo partly drawn) [STING agonist, 2′2′-cGMAP] | reduced tumour burden (p=0.0038) | enhanced circulating levels of IFN-γ | – |
| KVPRNQDWL [gp100, melanoma-specific antigen gp100 25-33 peptide] | – | – | no significant effect |
